From PubChem BioAssay (NCI)
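48-hour exposure; five concentrations; linearly interpolated endpoints. TGI: total growth inhibition.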

How the values were obtained:
Experiment in all cases: NCI-60 cell line screen, 48 h
[1] = system: HL-60(TB) leukemia
[2] = system: SF-295 CNS
[3] = system: OVCAR-8 ovarian
[4] = system: IGROV1 ovarian
[5] = system: HCC-2998 colon
[6] = system: SNB-19 CNS
[7] = system: SW-620 colon
[8] = system: UO-31 renal
[9] = system: OVCAR-4 ovarian
[10] = system: EKVX NSCLC
[11] = system: 786-0 renal
[12] = system: SK-MEL-2 melanoma
[13] = system: COLO 205 colon
[14] = system: SF-539 CNS
[15] = system: LXFL 529 NSCLC
[16] = system: CCRF-CEM leukemia
[17] = system: M14 melanoma
[18] = system: A549 NSCLC
[19] = system: TK-10 renal
[20] = system: OVCAR-3 ovarian
[21] = system: HCT-116 colon
[22] = system: SK-MEL-5 melanoma
[23] = system: DLD-1 colon
[24] = system: M19-MEL melanoma
[25] = system: K-562 leukemia
[26] = system: HOP-92 NSCLC
[27] = system: UACC-62 melanoma
[28] = system: MOLT-4 leukemia
[29] = system: HT29 colon
[30] = system: MALME-3M melanoma
[31] = system: HOP-62 NSCLC
[32] = system: CAKI-1 renal
[33] = system: UACC-257 melanoma
[34] = system: RPMI-8226 leukemia
[35] = system: SNB-78 CNS
[36] = system: SK-OV-3 ovarian
[37] = system: KM12 colon
[38] = system: HOP-18 NSCLC
[39] = system: NCI-H226 lung
[40] = system: DMS 114 small cell lung
[41] = system: SN12C renal
[42] = system: KM20L2 colon
[43] = system: SF-268 CNS
[44] = system: SR leukemia
[45] = system: RXF 393 renal
[46] = system: NCI-H460 lung
[47] = system: LOX IMVI melanoma
[48] = system: HCT-15 colon
[49] = system: NCI-H522 lung
[50] = system: NCI-H23 lung
[51] = system: U251 CNS
[52] = system: DMS 273 small cell lung
[53] = system: ACHN renal
[54] = system: SNB-75 CNS
[55] = system: SK-MEL-28 melanoma
[56] = system: OVCAR-5 ovarian
[57] = system: A498 renal

`CSc1nc(NC2OC(COC(C)=O)C(OC(C)=O)C(OC(C)=O)C2OC(C)=O)c(N=C(C)C(C)=O)c(=O)n1C` (configuration not stated) gave a TGI [1] greater than 100 µM, a TGI [2] greater than 100 µM and a TGI [3] greater than 100 µM. For the same compound, the TGI [4] was greater than 100 µM, the TGI [5] was greater than 100 µM and the TGI [6] was greater than 100 µM. It also gave a TGI [7] greater than 100 µM, a TGI [8] greater than 100 µM and a TGI [9] greater than 100 µM. The TGI [10] was greater than 100 µM, the TGI [11] was greater than 100 µM and the TGI [12] was greater than 100 µM. The TGI [13] was greater than 100 µM, the TGI [14] was greater than 100 µM and the TGI [15] was greater than 100 µM. The TGI [16] was greater than 100 µM, the TGI [17] was greater than 100 µM and the TGI [18] was greater than 100 µM. For the same compound, the TGI [19] was greater than 100 µM, the TGI [20] was greater than 100 µM and the TGI [21] was greater than 100 µM. The TGI [22] was greater than 100 µM, the TGI [23] was greater than 100 µM and the TGI [24] was greater than 100 µM. For the same compound, the TGI [25] was greater than 100 µM, the TGI [26] was greater than 100 µM and the TGI [27] was greater than 100 µM. For the same compound, the TGI [28] was greater than 100 µM, the TGI [29] was greater than 100 µM and the TGI [30] was greater than 100 µM. The TGI [31] was greater than 100 µM, the TGI [32] was greater than 100 µM and the TGI [33] was greater than 100 µM. It also gave a TGI [34] greater than 100 µM, a TGI [35] greater than 100 µM and a TGI [36] greater than 100 µM. For the same compound, the TGI [37] was greater than 100 µM, the TGI [38] was greater than 100 µM and the TGI [39] was greater than 100 µM. For the same compound, the TGI [40] was greater than 100 µM.
`O=C(O)CC1CC=C[C@H]2c3cc4c(cc3C(=O)NC12)OCO4` (some centres not stated) gave a TGI [1] greater than 75 µM, a TGI [41] greater than 75 µM and a TGI [2] greater than 75 µM. For the same compound, the TGI [42] was greater than 75 µM, the TGI [3] was greater than 75 µM and the TGI [4] was greater than 75 µM. The TGI [5] was greater than 75 µM, the TGI [43] was greater than 75 µM and the TGI [44] was greater than 75 µM. The TGI [45] was greater than 75 µM, the TGI [46] was greater than 75 µM and the TGI [6] was greater than 75 µM. It also gave a TGI [7] greater than 75 µM, a TGI [8] greater than 75 µM and a TGI [10] greater than 75 µM. It also gave a TGI [47] greater than 75 µM, a TGI [11] greater than 75 µM and a TGI [13] greater than 75 µM. For the same compound, the TGI [14] was greater than 75 µM, the TGI [15] was greater than 75 µM and the TGI [16] was greater than 75 µM. It also gave a TGI [17] greater than 75 µM, a TGI [18] greater than 75 µM and a TGI [19] greater than 75 µM. For the same compound, the TGI [20] was greater than 75 µM, the TGI [48] was greater than 75 µM and the TGI [21] was greater than 75 µM. For the same compound, the TGI [23] was greater than 75 µM, the TGI [24] was greater than 75 µM and the TGI [49] was greater than 75 µM. The TGI [25] was greater than 75 µM, the TGI [50] was greater than 75 µM and the TGI [51] was greater than 75 µM. The TGI [52] was greater than 75 µM, the TGI [27] was greater than 75 µM and the TGI [28] was greater than 75 µM. It also gave a TGI [53] greater than 75 µM, a TGI [30] greater than 75 µM and a TGI [31] greater than 75 µM. It also gave a TGI [54] greater than 75 µM, a TGI [33] greater than 75 µM and a TGI [34] greater than 75 µM. For the same compound, the TGI [35] was greater than 75 µM, the TGI [36] was greater than 75 µM and the TGI [37] was greater than 75 µM. The TGI [55] was greater than 75 µM, the TGI [39] was greater than 75 µM and the TGI [40] was greater than 75 µM.
Compound `CCO[C@@H]1OC(=O)[C@@](C)(C(C)=O)[C@@H]1C` has a TGI [1] of 78.6 µM, a TGI [2] of 66 µM and a TGI [42] greater than 100 µM. It also gave a TGI [4] greater than 100 µM, a TGI [43] of 44.1 µM and a TGI [44] greater than 100 µM. For the same compound, the TGI [45] was 70.2 µM, the TGI [46] was greater than 100 µM and the TGI [6] was 68.3 µM. The TGI [8] was greater than 100 µM, the TGI [9] was greater than 100 µM and the TGI [12] was 52 µM. The TGI [13] was greater than 100 µM, the TGI [15] was 47.6 µM and the TGI [16] was 49.5 µM. For the same compound, the TGI [17] was 70.4 µM, the TGI [20] was 31.4 µM and the TGI [56] was greater than 100 µM. The TGI [24] was 40.9 µM, the TGI [49] was greater than 100 µM and the TGI [25] was greater than 100 µM. The TGI [50] was 28.7 µM, the TGI [51] was 56.7 µM and the TGI [26] was 94.9 µM. It also gave a TGI [27] of 53.3 µM, a TGI [28] of 61.1 µM and a TGI [29] of 34.6 µM. It also gave a TGI [53] greater than 100 µM, a TGI [30] of 77.5 µM and a TGI [31] of 56.6 µM. For the same compound, the TGI [54] was 25.7 µM, the TGI [33] was 78.9 µM and the TGI [34] was 48.6 µM. The TGI [35] was 84.9 µM, the TGI [36] was greater than 100 µM and the TGI [37] was greater than 100 µM. For the same compound, the TGI [57] was greater than 100 µM, the TGI [55] was 29.9 µM and the TGI [40] was 68.9 µM.
`COc1cc2c(cc1OC)c1c(OC)c(OC)cc3c1c1c2sc(=S)n1CC3` was tested, and the TGI [1] was 81.8 µM, the TGI [41] was greater than 100 µM and the TGI [2] was greater than 100 µM. The TGI [42] was greater than 100 µM, the TGI [3] was greater than 100 µM and the TGI [4] was greater than 100 µM. The TGI [5] was greater than 100 µM, the TGI [43] was greater than 100 µM and the TGI [45] was greater than 100 µM. For the same compound, the TGI [46] was greater than 100 µM, the TGI [6] was greater than 100 µM and the TGI [7] was greater than 100 µM. It also gave a TGI [8] greater than 100 µM, a TGI [9] greater than 100 µM and a TGI [10] greater than 100 µM. It also gave a TGI [47] greater than 100 µM, a TGI [11] of 35.1 µM and a TGI [12] greater than 100 µM. The TGI [13] was greater than 100 µM, the TGI [14] was greater than 100 µM and the TGI [15] was greater than 100 µM. For the same compound, the TGI [16] was greater than 100 µM, the TGI [17] was 35.1 µM and the TGI [18] was greater than 100 µM. The TGI [19] was greater than 100 µM, the TGI [20] was greater than 100 µM and the TGI [48] was greater than 100 µM. It also gave a TGI [21] greater than 100 µM, a TGI [56] greater than 100 µM and a TGI [22] greater than 100 µM. It also gave a TGI [23] greater than 100 µM, a TGI [24] greater than 100 µM and a TGI [49] of 34.6 µM. The TGI [25] was greater than 100 µM, the TGI [50] was greater than 100 µM and the TGI [51] was greater than 100 µM. The TGI [52] was greater than 100 µM, the TGI [26] was greater than 100 µM and the TGI [27] was 59.1 µM. The TGI [28] was greater than 100 µM, the TGI [29] was greater than 100 µM and the TGI [53] was greater than 100 µM. It also gave a TGI [30] greater than 100 µM, a TGI [54] greater than 100 µM and a TGI [32] greater than 100 µM. It also gave a TGI [33] greater than 100 µM, a TGI [34] greater than 100 µM and a TGI [35] greater than 100 µM. The TGI [36] was greater than 100 µM, the TGI [37] was greater than 100 µM and the TGI [57] was greater than 100 µM. The TGI [38] was greater than 100 µM, the TGI [55] was greater than 100 µM and the TGI [39] was greater than 100 µM. For the same compound, the TGI [40] was 98.1 µM.
